Experiment in all cases: microbe, parasite or virus in culture
Assay [1] has as its system P. aeruginosa clinical isolates. The essentials:
(§1)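 MIC90 from CLSI broth microdilution (M07-A9) in two clinical-isolate panels. US panel (331 isolates, 2010-2012): AA139 diluted in 0.01% acetic acid/0.1% BSA. Worldwide panel (445 isolates, 2011-2013, four regions): CAMHB, with 0.002% Tween 80 added for AA139 and polymyxin B.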

Assay [2] deals with E. coli clinical isolates. A digest of the protocol:
as §1

For assay [3], the system named is K. pneumoniae clinical isolates. The essentials: as §1
Assay [4] relates to E. coli ATCC 25922. It is filed as cell-based, Escherichia coli. Also on record: MIC, Survanta (5%) replicates: unit not given beside the values. As to conditions: for MIC, Survanta (5%) replicates / MIC, Serum (50%) / MIC, Serum (50%) replicates: E. coli ATCC 25922, FDA control strain; for MIC, Survanta (5%) replicates: BMD with 5% Survanta lung surfactant; for MIC, Serum (50%) / MIC, Serum (50%) replicates: BMD with 50% human serum; for MIC, Serum (50%): mode, or median where no mode, n=4 to 6, where n=2 differs the higher value; for MIC: Escherichia coli, E. coli ATCC 25922, n=2 to 6, mode or median. The essentials: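 Broth microdilution MIC in Mueller Hinton broth, 12-point 2-fold series from 128 or 64 down to 0.06 or 0.03 μg mL^−1, 5 × 10^5 CFU mL^−1 inoculum. Read visually after 18-20 h at 37 °C without shaking; n ≥ 6. Additional tests in CAMHB, and in MHB with 1% agarose.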

The mark [5] stands for this setting: Worldwide isolates 2011-2013, P. aeruginosa n = 111.
[6] abbreviates: Worldwide isolates 2011-2013, E. coli n = 112.
The mark [7] stands for this setting: Worldwide isolates 2011-2013, K. pneumoniae n = 114.
Where [8] appears, read: ATCC25922, read-out: MIC, SURVANTA (5%), MHB + 5% (v/v) lung surfactant.

≈ marks a conversion by molar mass, not a printed value. Like-named read-outs stand apart in the source and are kept apart here.

For `CNC(C)C1CCC(N)C(OC2C(N)CC(N)C(OC3OCC(C)(O)C(NC)C3O)C2O)O1` (stereo not shown) [Gentamicin, gentamicin, reference compound], the MIC90 is above 32 µg/mL in assay [1] (Pseudomonas aeruginosa, US isolates 2010–2012, P. aeruginosa Non-MDR, n = 41); above 32 µg/mL in assay [1] (Pseudomonas aeruginosa, US isolates 2010–2012, P. aeruginosa XDR, n = 37); above 32 µg/mL in assay [1] (setting [5]); 32 µg/mL (≈ 67 µM) in assay [2] (Escherichia coli); above 32 µg/mL in assay [2] (Escherichia coli, US isolates 2010–2012, E. coli MDR, n = 31); 8 µg/mL (≈ 16.8 µM) in assay [2] (Escherichia coli, US isolates 2010–2012, E. coli Non-MDR, n = 24). For the same compound, the MIC90 is 32 µg/mL (≈ 67 µM) in assay [2] (setting [6]); 8 µg/mL (≈ 16.8 µM) in assay [3] (Klebsiella pneumoniae, US isolates 2010–2012, K. pneumoniae Non-MDR, n = 24); above 32 µg/mL in assay [3] (Klebsiella pneumoniae, US isolates 2010–2012, K. pneumoniae XDR, n = 55); above 32 µg/mL in assay [3] (setting [7]). For the same compound, the values for the MIC50 in assay [1] (setting [5]), in assay [2] (setting [6]) and in assay [3] (setting [7]) were 2 µg/mL (≈ 4.19 µM), 0.5 µg/mL (≈ 1.05 µM) and 0.5 µg/mL (≈ 1.05 µM), respectively.
In the case of `O=C(O)c1cn(C2CC2)c2cc(N3CCNCC3)c(F)cc2c1=O` [Ciprofloxacin, ciprofloxacin], the “MIC, Survanta (5%) replicates” value in assay [4] (replicate 1), in assay [4] (replicate 2), in assay [4] (replicate 3) and in assay [4] (replicate 4) was at most 0.03 in each case. Further, in assay [4], the “MIC, Serum (50%)” value is given as at most 0.03. Also, the “MIC, Serum (50%) replicates” value in assay [4] (replicate 1), in assay [4] (replicate 2), in assay [4] (replicate 3) and in assay [4] (replicate 4) was at most 0.03 in each case. Besides, the MIC in assay [4] (setting [8]) is at most 0.03 µg/mL.
Regarding `COc1cc(Cc2cnc(N)nc2N)cc(OC)c1OC` [Trimethoprim], the “MIC, Survanta (5%) replicates” value in assay [4] (replicate 1), in assay [4] (replicate 2), in assay [4] (replicate 3) and in assay [4] (replicate 4) was 1 throughout. For the same compound, the “MIC, Serum (50%)” value in assay [4] came out at 4. In addition, the “MIC, Serum (50%) replicates” value amounted to 4 in assay [4] (replicate 1), 2 in assay [4] (replicate 2), 4 in assay [4] (replicate 3) and 4 in assay [4] (replicate 4). Moreover, the MIC in assay [4] (setting [8]) was determined as 1 µg/mL; in assay [4] (ATCC25922, read-out: MIC, Serum (50%), MHB + 50% (v/v) human serum), 4 µg/mL.
On to “polymyxin B [PolymyxinB, reference compound]”, for which the values for the MIC50 in assay [1] (setting [5]), in assay [2] (setting [6]) and in assay [3] (setting [7]) were 0.12 µg/mL, 0.03 µg/mL and 0.03 µg/mL, respectively. In addition, the values for the MIC90 in assay [1] (setting [5]), in assay [2] (setting [6]) and in assay [3] (setting [7]) were 0.25 µg/mL, 0.03 µg/mL and 0.06 µg/mL, respectively.
